Drawing on patent US20230183243A1, “HETEROARYL DERIVATIVES AND PHARMACEUTICAL COMPOSITION COMPRISING SAME AS ACTIVE INGREDIENT” (VORONOI INC., priority 2019, published 2023), this text covers GI50 and IC50 for 19 molecules.

One experiment deals with SHP-77. The experiment is described as follows: Inhibition of proliferation of small cell lung cancer cells, CellTiter-Glo. It counts as cell-based. The note with it: Homo sapiens, SHP77, 120 h; SHP-77, cultured for 5 days. In a few lines: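 SHP-77 cells at 2,000–3,000 cells/well, cultured 24 h at 37° C, 5% CO2, then given 12 threefold compound dilutions, final 10 μM to 0.05 nM, for 5 days. Viability by CellTiter-Glo luminescence relative to solvent control. GI50 from concentration–response.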

A further experiment deals with MDA-MB-231 cells. The experiment is described as follows: Inhibition of proliferation of triple-negative breast cancer cells, CellTiter-Glo. The note with it: Homo sapiens, 120 h; MDA-MB-231, cultured for 5 days. It counts as cell-based. An outline of the steps:
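MDA-MB-231 cells pre-cultured 24 h (5% CO2, 37 °C), then exposed to compound for 5 days at 12 three-fold dilutions, final 10 μM to 0.05 nM. Viability read by CellTiter-Glo luminescence after 10 min at 37 °C; growth inhibition calculated relative to untreated solvent-control cells.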

A further experiment addresses T1, TTK (Homo sapiens, UniProt P33981).
T1 sequence (P33981 1-857): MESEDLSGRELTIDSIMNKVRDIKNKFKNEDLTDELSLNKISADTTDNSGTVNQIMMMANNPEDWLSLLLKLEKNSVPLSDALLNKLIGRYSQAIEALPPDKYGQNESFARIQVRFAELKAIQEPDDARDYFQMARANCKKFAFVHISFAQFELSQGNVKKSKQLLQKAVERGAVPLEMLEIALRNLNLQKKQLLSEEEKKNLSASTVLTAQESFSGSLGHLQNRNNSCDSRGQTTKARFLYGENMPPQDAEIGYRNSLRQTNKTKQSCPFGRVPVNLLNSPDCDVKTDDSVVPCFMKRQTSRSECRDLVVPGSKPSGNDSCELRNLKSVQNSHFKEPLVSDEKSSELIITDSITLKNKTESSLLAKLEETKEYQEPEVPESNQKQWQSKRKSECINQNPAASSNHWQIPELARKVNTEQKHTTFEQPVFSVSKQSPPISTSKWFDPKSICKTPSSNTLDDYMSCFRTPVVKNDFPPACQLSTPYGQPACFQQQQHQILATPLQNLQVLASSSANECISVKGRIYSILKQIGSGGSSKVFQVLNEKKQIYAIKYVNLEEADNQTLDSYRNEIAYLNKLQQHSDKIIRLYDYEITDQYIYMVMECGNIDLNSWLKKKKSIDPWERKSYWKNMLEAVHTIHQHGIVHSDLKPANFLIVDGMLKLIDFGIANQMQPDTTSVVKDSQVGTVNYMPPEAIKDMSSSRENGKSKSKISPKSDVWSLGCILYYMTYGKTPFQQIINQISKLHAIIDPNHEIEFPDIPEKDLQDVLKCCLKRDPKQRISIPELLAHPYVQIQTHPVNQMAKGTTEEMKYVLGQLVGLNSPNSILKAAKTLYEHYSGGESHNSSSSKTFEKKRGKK
The experiment is described as follows: TTK enzyme activity, ADP-Glo kinase assay. The note with it: purified human TTK, ATP 10 μM, 25° C., 2 hours. More on the design: purchased SignalChem T20-10G. It is filed as biochemical. An outline of the steps:
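Purified human TTK (25 ng) incubated with 10 μM ATP and substrate (0.2 μg) for 2 h at 25 °C in Tris-HCl pH 7.4, MgCl2, BSA, DTT buffer. ADP formation read by ADP-Glo; inhibition calculated against untreated solvent control.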

Consider `COc1cc(Nc2nc(NC3CCCCC3)c3c(C#N)c[nH]c3n2)ccc1-c1ccnn1C` [Example 121, 4-(cyclohexylamino)-2-((3-methoxy-4-(1-methyl-1H-pyrazol-5-yl)phenyl)amino)-7H-pyrrolo[2,3-d] pyrimidine-5-carbonitrile], for which the concentration for 50% growth inhibition (GI50) with SHP-77 and in the experiment with MDA-MB-231 cells was under 0.1 µM in each case. The IC50 against TTK was under 0.05 µM.
For the molecule `COc1cc(-c2ccnn2C)c(F)cc1Nc1nc(NC2CCOCC2)c2c(C#N)c[nH]c2n1` [Example 122, 2-((5-fluoro-2-methoxy-4-(1-methyl-1H-pyrazol-5-yl)phenyl)amino)-4-((tetrahydro-2H-pyran-4-yl)amino)-7H-pyrrolo[2,3-d] pyrimidine-5-carbonitrile], the GI50 in the experiment with SHP-77 and in the experiment with MDA-MB-231 cells was under 0.1 µM throughout. Further, the IC50 against TTK was under 0.05 µM.
For the molecule `COc1cc(-c2c(C)noc2C)c(F)cc1Nc1nc(NC2CCCCC2)c2c(C#N)c[nH]c2n1` [Example 123, 4-(cyclohexylamino)-2-((4-(3,5-dimethylisoxazol-4-yl)-5-fluoro-2-methoxyphenyl)amino)-7H-pyrrolo[2,3-d] pyrimidine-5-carbonitrile], the figures for the GI50 in the experiment with SHP-77 and in the experiment with MDA-MB-231 cells were 0.1 to 1 µM and over 1 µM, respectively. Besides, the IC50 on TTK was in the range of 0.05 to 0.2 µM.
For `COc1cc(-c2cnn(C)c2)c(F)cc1Nc1nc(NC2CCOCC2)c2c(C#N)c[nH]c2n1` [Example 124, 2-((5-fluoro-2-methoxy-4-(1-methyl-1H-pyrazol-4-yl)phenyl)amino)-4-((tetrahydro-2H-pyran-4-yl)amino)-7H-pyrrolo[2,3-d] pyrimidine-5-carbonitrile] the same measures were under 0.1 µM, under 0.1 µM and under 0.05 µM.
For `COc1cc(-c2cnn(C)c2)c(F)cc1Nc1nc(NC2CCCC2)c2c(C#N)c[nH]c2n1` [Example 125, 4-(cyclopentylamino)-2-((5-fluoro-2-methoxy-4-(1-methyl-1H-pyrazol-4-yl)phenyl)amino)-7H-pyrrolo[2,3-d] pyrimidine-5-carbonitrile] the same measures were 0.1 to 1 µM, under 0.1 µM and under 0.05 µM.
On the same counts, the results for `COc1cc(-c2cnn(C)c2)c(F)cc1Nc1nc(NC2CCCCC2)c2c(C#N)c[nH]c2n1` [Example 126, 4-(cyclohexylamino)-2-((5-fluoro-2-methoxy-4-(1-methyl-1H-pyrazol-4-yl)phenyl)amino)-7H-pyrrolo[2,3-d] pyrimidine-5-carbonitrile] are over 1 µM, over 1 µM and under 0.05 µM.
In the case of `COc1cc(-c2ccnn2C)ccc1Nc1nc(NC2CCCC2)c2c(Cl)c[nH]c2n1` [Example 127, 5-chloro-N^4-cyclopentyl-N^2-(2-methoxy-4-(1-methyl-1H-pyrazol-5-yl)phenyl)-7H-pyrrolo[2,3-d] pyrimidine-2,4-diamine], the GI50 in the experiment with SHP-77 and with MDA-MB-231 cells was under 0.1 µM in each case. Moreover, the 50% inhibitory concentration (IC50) on TTK was 0.05 to 0.2 µM.
On to `Cn1nccc1-c1ccc(Nc2nc(NC3CCCC3)c3c(Cl)c[nH]c3n2)c2c1OCCO2` [Example 128, 5-chloro-N^4-cyclopentyl-N^2-(8-(1-methyl-1H-pyrazol-5-yl)-2,3-dihydrobenzo[b][1,4]dioxin-5-yl)-7H-pyrrolo[2,3-d] pyrimidine-2,4-diamine], for which the GI50 in the experiment with SHP-77 was under 0.1 µM; in the experiment on MDA-MB-231 cells, 0.1 to 1 µM. In addition, the IC50 against TTK lay within 0.05 to 0.2 µM.
For `COc1cc(-c2ccnn2C)ccc1Nc1nc(C2=CCCCC2)c2c(C#N)c[nH]c2n1` [Example 129, 4-(cyclohex-1-en-1-yl)-2-((2-methoxy-4-(1-methyl-1H-pyrazol-5-yl)phenyl)amino)-7H-pyrrolo[2,3-d] pyrimidine-5-carbonitrile] the same measures were 0.1 to 1 µM, 0.1 to 1 µM and 0.2 to 1 µM.
On the same counts, the results for `Cn1nccc1-c1ccc(Nc2nc(C3=CCCCC3)c3c(C#N)c[nH]c3n2)c2c1OCCO2` [Example 130, 4-(cyclohex-1-en-1-yl)-2-((8-(1-methyl-1H-pyrazol-5-yl)-2,3-dihydrobenzo[b][1,4]dioxin-5-yl)amino)-7H-pyrrolo[2,3-d] pyrimidine-5-carbonitrile] are 0.1 to 1 µM, 0.1 to 1 µM and 0.05 to 0.2 µM.
On the same counts, the results for `COc1cc(-c2c(C)noc2C)ccc1Nc1nc(NC2CCOCC2)c2c(C(F)(F)F)c[nH]c2n1` [Example 131, N^2-(4-(3,5-dimethylisoxazol-4-yl)-2-methoxyphenyl)-N^4-(tetrahydro-2H-pyran-4-yl)-5-(trifluoromethyl)-7H-pyrrolo[2,3-d] pyrimidine-2,4-diamine] are under 0.1 µM, under 0.1 µM and 0.05 to 0.2 µM.
`COc1cc(-c2ccnn2C)ccc1Nc1nc(NC2CCCC2)c2c(C(F)(F)F)c[nH]c2n1` [Example 132, N^4-cyclopentyl-N^2-(2-methoxy-4-(1-methyl-1H-pyrazol-5-yl)phenyl)-5-(trifluoromethyl)-7H-pyrrolo[2,3-d] pyrimidine-2,4-diamine]: the GI50 in the experiment on SHP-77 and with MDA-MB-231 cells was 0.1 to 1 µM each time. Also, the IC50 against TTK lay in the range of 0.05 to 0.2 µM.
Regarding `Cn1nccc1-c1ccc(Nc2nc(NC3CCCC3)c3c(C(F)(F)F)c[nH]c3n2)c2c1OCCO2` [Example 133, N^4-cyclopentyl-N^2-(8-(1-methyl-1H-pyrazol-5-yl)-2,3-dihydrobenzo[b][1,4]dioxin-5-yl)-5-(trifluoromethyl)-7H-pyrrolo[2,3-d] pyrimidine-2,4-diamine], the GI50 in the experiment on SHP-77 and in the experiment on MDA-MB-231 cells was 0.1 to 1 µM each time. Besides, at TTK, the IC50 fell in the range of 0.2 to 1 µM.
Take `COc1cc(-c2ccccc2)ccc1Nc1nc(NC2CCOCC2)c2c(C#N)c[nH]c2n1` [Example 134, 2-((3-methoxy-[1,1 biphenyl]-4-yl)amino)-4-((tetrahydro-2H-pyran-4-yl)amino)-7H-pyrrolo[2,3-d] pyrimidine-5-carbonitrile]: the GI50 with SHP-77 and with MDA-MB-231 cells was under 0.1 µM each time. The molecule further yielded an IC50 at TTK of under 0.05 µM.
With `COc1cc(Nc2nc(NC3CCCC3)c3c(C#N)c[nH]c3n2)ccc1-c1cnn(C)c1` [Example 136, 4-(cyclopentylamino)-2-((3-methoxy-4-(1-methyl-1H-pyrazol-4-yl)phenyl)amino)-7H-pyrrolo[2,3-d] pyrimidine-5-carbonitrile], the GI50 with SHP-77 and in the experiment on MDA-MB-231 cells was under 0.1 µM each time. The IC50 on TTK is 0.05 to 0.2 µM.
Consider `COc1cc(Nc2nc(NC3CCCCC3)c3c(C#N)c[nH]c3n2)ccc1-c1cnn(C)c1` [Example 137, 4-(cyclohexylamino)-2-((3-methoxy-4-(1-methyl-1H-pyrazol-4-yl)phenyl)amino)-7H-pyrrolo[2,3-d] pyrimidine-5-carbonitrile], for which the GI50 in the experiment with SHP-77 and with MDA-MB-231 cells was under 0.1 µM throughout. For the same molecule, the IC50 against TTK was 0.05 to 0.2 µM.
`COc1cc(Nc2nc(NC3CCOCC3)c3c(C#N)c[nH]c3n2)ccc1-c1c(C)noc1C` [Example 138]: the GI50 in the experiment on SHP-77 and with MDA-MB-231 cells was under 0.1 µM each time. This molecule had an IC50 at TTK of under 0.05 µM.
For the molecule `COc1cc(Nc2nc(NC3CCCC3)c3c(C#N)c[nH]c3n2)ccc1-c1c(C)noc1C` [Example 139, 4-(cyclopentylamino)-2-((4-(3,5-dimethylisoxazol-4-yl)-3-methoxyphenyl)amino)-7H-pyrrolo[2,3-d] pyrimidine-5-carbonitrile], the GI50 in the experiment on SHP-77 is under 0.1 µM; in the experiment with MDA-MB-231 cells it was 0.1 to 1 µM. Also, the IC50 at TTK lay in the range of 0.2 to 1 µM.
Regarding `COc1cc(Nc2nc(NC3CCCCC3)c3c(C#N)c[nH]c3n2)ccc1-c1c(C)noc1C` [Example 140, 4-(cyclohexylamino)-2-((4-(3,5-dimethylisoxazol-4-yl)-3-methoxyphenyl)amino)-7H-pyrrolo[2,3-d] pyrimidine-5-carbonitrile], the GI50 in the experiment on SHP-77 and in the experiment with MDA-MB-231 cells was under 0.1 µM each time. In addition, the IC50 at TTK is 0.2 to 1 µM.
